Results from patent publication US20090082435A1, “Methods, Compositions, And Compounds For Modulation Of Monoacylglycerol Lipase, Pain, And Stress-Related Disorders” (The Regents of the University of California, priority 2005, published 2009).

Assays:
[1] = tested on: stress-induced analgesia in rats; experiment: non-opioid stress-induced analgesia: foot shock, then tail-flick test; type: in vivo, rat
[2] = tested on: organotypic slice cultures of rat forebrain; experiment: endocannabinoid content by LC/MS in organotypic brain slice cultures; type: cell-based; details: URB602 100 μM; for anandamide levels: URB597 1 μM
Method: Brain slice cultures. Brain slices were cultured from Wistar rats. Pups were sacrificed on post-natal day 5 by decapitation following cryo-anaesthesia. Brains were removed and cut (0.4 mm-thick coronal slices) using a vibratome in a bath of ice-cold high-glucose Dulbecco's Modified Eagle's Medium (Gibco). Hemispheres were placed on Millicell culture inserts (Millipore) in 6-well plates with serum-based culture medium (1.5 ml) composed of basal Eagle medium with Earle's salts (100 ml), Earle's balanced salt solution (50 ml), heat-inactivated horse serum (50 ml), L-glutamine (0.2 mM, 1 ml) and 50% glucose (2 ml) (Gibco). Slices were maintained at 37° C. with 5% CO2 for 7 days before use.
(§1) Lipid extractions and LC/MS analyses. Ex vivo experiments. Rats were habituated to the guillotine for at least 7 days prior to the experiment and sacrificed them either before or various times (2, 7, 15 and 25 min) after a 3-min foot shock (n=10 per group). The brains were rapidly removed, dissected and stored frozen (−80° C.) until lipid extraction. In vitro experiments. […] In some experiments, slices were incubated with ionomycin (2 μM) in DMEM for additional 15 min. Reactions were stopped and washed with ice-cold 50% methanol (1 ml). Slices were collected in the same medium (0.2 ml) and homogenized. Brain tissue (≈50 mg) and slice homogenates were suspended in methanol (2 ml) containing [^2H]-containing internal standards (25 pmol). Lipids were extracted in methanol-chloroform-H2O (1:2:0.25). The organic phase was recovered, evaporated to dryness, reconstituted in chloroform/methanol (1:3, 80 μL) and subjected to LC/MS analysis as described (Giuffrida, A. et al., Anal. Biochem. 280:87-93 (2000)).

[3] = tested on: tail-flick latencies in rats; experiment: tail-flick test without stressor: basal thresholds, agonist antinociception; type: in vivo, rat; details: for basal nociceptive threshold (tail-flick latencies) in absence of stressor: same doses and routes as in stress analgesia tests; for drug's own antinociceptive effects after repeated daily injections: prior to foot shock, WIN55,212-2 14 days, morphine 7 days
[4] = molecular target: T1, native rat brain MGL (Rattus norvegicus, UniProt Q8R431); experiment: MGL activity assay, rat brain cytosol, 2-monooleoylglycerol substrate; type: biochemical; details: for effect on rat brain MGL activity in vitro: FIG. 3b
T1 construct: from tissue; host or cells: Wistar rat brain, cytosol fraction
T1 sequence (Q8R431 1-303): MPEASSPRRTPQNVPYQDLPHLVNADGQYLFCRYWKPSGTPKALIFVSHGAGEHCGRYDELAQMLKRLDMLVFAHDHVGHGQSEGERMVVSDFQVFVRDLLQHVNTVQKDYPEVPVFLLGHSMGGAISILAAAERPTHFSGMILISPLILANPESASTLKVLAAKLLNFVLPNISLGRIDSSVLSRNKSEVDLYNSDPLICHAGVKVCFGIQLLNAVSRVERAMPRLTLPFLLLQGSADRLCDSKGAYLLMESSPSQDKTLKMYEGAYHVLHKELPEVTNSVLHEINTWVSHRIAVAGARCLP

[5] = molecular target: T2, rat brain FAAH (Rattus norvegicus, UniProt P97612); experiment: FAAH activity assay, rat brain membranes, anandamide substrate; type: biochemical; details: FIG. 3c
T2 construct: from tissue; host or cells: Wistar rat brain, membrane fraction
T2 sequence (P97612 1-579): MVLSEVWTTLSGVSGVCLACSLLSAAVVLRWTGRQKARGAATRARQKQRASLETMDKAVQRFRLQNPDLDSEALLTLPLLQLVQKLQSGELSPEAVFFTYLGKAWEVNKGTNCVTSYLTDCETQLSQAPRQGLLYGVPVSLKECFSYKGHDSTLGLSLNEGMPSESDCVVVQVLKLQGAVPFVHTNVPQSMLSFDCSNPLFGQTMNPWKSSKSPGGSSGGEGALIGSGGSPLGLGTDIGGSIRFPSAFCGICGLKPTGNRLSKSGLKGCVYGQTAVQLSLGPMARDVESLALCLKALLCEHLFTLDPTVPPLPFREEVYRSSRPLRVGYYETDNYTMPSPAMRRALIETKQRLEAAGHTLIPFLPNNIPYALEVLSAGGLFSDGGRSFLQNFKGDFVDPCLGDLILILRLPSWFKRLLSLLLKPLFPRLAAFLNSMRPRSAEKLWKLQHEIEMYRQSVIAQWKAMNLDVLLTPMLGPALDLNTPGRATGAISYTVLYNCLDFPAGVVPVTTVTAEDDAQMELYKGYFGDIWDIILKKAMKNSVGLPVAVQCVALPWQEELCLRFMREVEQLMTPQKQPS

[6] = tested on: diacylglycerol lipase (DGL); experiment: DGL activity assay, rat brain protein, [3H]dioleoylglycerol; type: biochemical
[7] = molecular target: T3, cyclooxygenase (Cox)-2 (Homo sapiens, UniProt P35354); experiment: cyclooxygenase assay, commercial kit with purified enzymes; type: biochemical
T3 construct: purchased Cayman Chemicals, Ann Arbor, Mich
T3 sequence (P35354 18-604): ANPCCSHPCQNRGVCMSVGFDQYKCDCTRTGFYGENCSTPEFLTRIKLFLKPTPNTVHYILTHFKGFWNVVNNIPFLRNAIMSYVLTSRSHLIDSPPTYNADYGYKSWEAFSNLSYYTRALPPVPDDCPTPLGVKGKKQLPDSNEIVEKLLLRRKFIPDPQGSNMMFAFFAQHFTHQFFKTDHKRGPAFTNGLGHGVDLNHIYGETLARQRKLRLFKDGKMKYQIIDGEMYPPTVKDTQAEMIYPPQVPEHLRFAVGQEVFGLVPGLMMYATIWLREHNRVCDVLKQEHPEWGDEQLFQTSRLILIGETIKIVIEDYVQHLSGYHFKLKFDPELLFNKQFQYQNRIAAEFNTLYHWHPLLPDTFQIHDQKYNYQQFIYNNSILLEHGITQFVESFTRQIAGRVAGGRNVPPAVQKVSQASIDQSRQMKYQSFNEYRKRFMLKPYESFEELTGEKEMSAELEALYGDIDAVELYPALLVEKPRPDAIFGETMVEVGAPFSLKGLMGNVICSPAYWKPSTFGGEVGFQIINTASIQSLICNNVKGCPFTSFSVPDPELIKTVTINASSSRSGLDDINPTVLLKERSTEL

[8] = tested on: PLD; experiment: phospholipase D activity assay; type: biochemical, S. chromofuscus
[9] = tested on: 2-AG and anandamide levels in rat brain; experiment: ex vivo brain endocannabinoid levels by LC/MS after PAG microinjection and foot shock; type: in vivo
Method: as §1

[10] = molecular target: phospholipase C (PLC) (Bacillus cereus, UniProt P09598); experiment: phospholipase C activity assay; type: biochemical, B. cereus
Sequence of phospholipase C (PLC) (P09598 39-283 limits assumed): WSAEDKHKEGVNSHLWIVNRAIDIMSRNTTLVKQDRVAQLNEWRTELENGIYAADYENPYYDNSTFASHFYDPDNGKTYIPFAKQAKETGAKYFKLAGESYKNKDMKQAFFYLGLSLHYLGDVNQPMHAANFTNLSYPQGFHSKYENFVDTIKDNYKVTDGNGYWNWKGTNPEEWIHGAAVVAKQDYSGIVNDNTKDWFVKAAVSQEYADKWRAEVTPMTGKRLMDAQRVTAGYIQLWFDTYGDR

[11] = molecular target: rat cerebellar membranes; experiment: [35S]-GTP-γ-S binding to rat cerebellar membranes; type: biochemical; details: data not shown; read-out: half-maximal effective concentration (EC50), [35S]-GTP-γ-S binding
[12] = URB602 0.1 nmol in PAG, 25 min after shock

Cc1c(C(=O)NN2CCCCC2)nn(-c2ccc(Cl)cc2Cl)c1-c1ccc(I)cc1 [AM251]
effect of antagonist on stress-induced analgesia, systemic ([1]; rat, in vivo, ip): almost abolished

NC(=O)c1cccc(-c2cccc(OC(=O)NC3CCCCC3)c2)c1 [URB597]
anandamide levels [2]: markedly elevated
basal nociceptive threshold (tail-flick latencies) in absence of stressor [3]: did not modify
effect on rat brain MGL activity in vitro [4]: no effect
effect on stress-induced analgesia, URB597 in dorsolateral PAG ([1]; rat, in vivo): significant potentiation
effect on stress-induced analgesia, URB597 systemic ([1]; rat, in vivo, ip): significant potentiation

O=C(Nc1cccc(-c2ccccc2)c1)OC1CCCCC1 [URB602, biphenyl-3-yl carbamic acid cyclohexyl ester]
basal 2-AG levels [2]: significantly increased
anandamide levels [2]: did not modify
2-AG accumulation elicited by ionomycin ([2]; ionomycin 2 μM): enhanced
effect on rat brain FAAH activity [5]: does not affect
effect on DGL activity [6]: did not affect
basal nociceptive threshold (tail-flick latencies) in absence of stressor [3]: without altering
effect on Cox-2 activity [7]: did not affect
effect on rat brain MGL activity in vitro [4]: inhibits
IC50 ([4]; broken cell preparations, read-out: half-maximal concentration (IC50) for inhibition of MGL): 28 ± 4 µM
mechanism of MGL inhibition ([4]; kinetic analyses): non-competitive
Vmax of MGL with URB602 ([4]; n=4, without URB602 1814±51): 541±20 nmol-min-mg^−1 protein
effect on PLD activity [8]: did not affect
2-AG content in midbrain fragments vs untreated controls [9, 12]: significantly higher
anandamide levels in midbrain vs untreated controls [9, 12]: identical
2-AG and anandamide concentrations in occipital cortex ([9]; URB602 injection into the PAG): not affected
effect on PLC activity [10]: did not affect
effect on stress-induced analgesia, URB602 in dorsolateral PAG ([1]; 0.1 nmol microinjection): enhanced
effect on stress-induced analgesia, URB602 in ventrolateral PAG ([1]; 0.1 nmol microinjection): enhanced
EC50 [11]: > 100 µM

Cc1c(C(=O)c2cccc3ccccc23)c2cccc3c2n1[C@H](CN1CCOCC1)CO3 [WIN55, 212-2]
drug's own antinociceptive effects after repeated daily injections [3]: decrease
stress-induced analgesia in rats made tolerant to the agonist ([1]; rat, in vivo): marked reduction

CN1CC[C@]23c4c5ccc(O)c4O[C@H]2[C@@H](O)C=C[C@H]3[C@H]1C5 [morphine]
mean tail-flick latency after morphine, cannabinoid tolerant rats ([3]; morphine 2.5 mg-kg^−1 s.c., rats tolerant to WIN55,212-2, n=6-7): 6.09 ± 1.93 s
mean tail-flick latency after morphine, control rats ([3]; morphine 2.5 mg-kg^−1 s.c., vehicle-treated controls, n=6-7): 5.33 ± 0.21 s
drug's own antinociceptive effects after repeated daily injections [3]: decrease
stress-induced analgesia in rats made tolerant to the agonist ([1]; rat, in vivo): normal degree

O=C1CC[C@@]2(O)[C@H]3Cc4ccc(O)c5c4[C@@]2(CCN3CC2CC2)[C@H]1O5 [naltrexone]
effect of antagonist on stress-induced analgesia, systemic ([1]; rat, in vivo, ip): insensitive

Cc1c(C(=O)NN2CCCCC2)nn(-c2ccc(Cl)cc2Cl)c1-c1ccc(Cl)cc1 [rimonabant]
basal nociceptive threshold (tail-flick latencies) in absence of stressor [3]: does not alter
effect of low-dose rimonabant alone on stress analgesia ([1]; 0.2 nmol in PAG): insufficient to reverse
rimonabant effect on MAFP enhancement of stress analgesia ([1]; co-injection, rimonabant 0.2 nmol): blocked
effect of antagonist on stress-induced analgesia, systemic ([1]; i.p., naltrexone 14 mg-kg^−1, rimonabant, AM251, SR144528 5 mg-kg^−1): almost abolished
rimonabant effect on URB602 enhancement of stress analgesia ([1]; local co-administration in PAG, rimonabant 0.2 nmol): prevented
effect on stress-induced analgesia, ventrolateral PAG ([1]; rimonabant 2 nmol): inactive
effect on stress-induced analgesia, dorsolateral PAG ([1]; rimonabant 2 nmol microinjected): significantly reduced
rimonabant effect on URB597 potentiation of stress analgesia ([1]; rimonabant 1 mg-kg^−1 i.p., 0.2 nmol in the PAG): prevented
rimonabant effect on VDM11 enhancement of stress analgesia ([1]; rimonabant 2 mg-kg^−1 i.p.): blocked
effect on stress-induced analgesia, lateral ventricle ([1]; rimonabant 2-10 nmol): ineffective
